Data reported in patent US20260055381A1, “PROTEIN, POLYNUCLEOTIDE, EXPRESSION VECTOR, TRANSFORMANT, PLASMALOGEN-CONTAINING COMPOSITION, AND METHOD FOR PRODUCING PLASMALOGEN” (INSTITUTE OF RHEOLOGICAL FUNCTION OF FOOD CO., LTD., priority 2022, published 2026).

Experiment: Production of plasmalogen in suis plsA-transformed E. coli (phospholipid by HPLC-ELSD, aldehyde after acid hydrolysis)
Conditions: in aerobically grown E. coli
Experimental: After thawing the bacterial cells, the total weight of the cells was measured. After 1 mL of water was added to and mixed with the bacterial cells, 3.75 mL of chloroform/methanol (1:2, v/v) was added thereto, and the resulting mixture was mixed. The mixture was subjected to sonication for 10 minutes, and then left to stand at room temperature for 30 minutes. After adding 1.25 mL chloroform to the mixture, 1.25 mL water was added thereto. After performing centrifugation, the chloroform layer was transferred to a glass tube, and the remaining aqueous layer was subjected to re-extraction with 2 mL of chloroform. The resulting combined chloroform layer was dried under nitrogen gas, and resuspended in hexane/isopropanol (3:2, v/v) to a bacterial cell concentration of 120 mg/mL, followed by filtration through a 0.45-μm filter. After injecting 10 μL of the bacterial cell suspension into high-performance liquid chromatography (HPLC), detection was performed by an evaporative light-scattering detector (ELSD).
Lipid standard solutions with different concentrations were also detected by HPLC-ELSD. A calibration curve was prepared based on the peak area at each concentration, and the amount of phospholipids was calculated from the area ratio of the peak corresponding to phospholipids obtained from the E. coli with a retention time of 10 to 20 minutes. […]

For “suis PlsA protein: PlsA protein of 1639 amino acids of SEQ ID NO:2, from B. longum suis subspecies”, the plasmalogen synthesis activity was “shown to have a plasmalogen synthesis activity”.
